Patent US9663573B2, “Methods of treating liver conditions using Notch2 antagonists” (GENENTECH, INC., priority 2011, dated 2017)

Tests used:
Notch2 = biological target: T1, Notch2 (Mus musculus, UniProt O35516); assay: Notch2 signaling in cultured oval cells (activated Notch2 ICD by Western blot, Hes1 expression); assay type: cell-based; details: FIG. 2H
T1 construct: Cell cultures were established by culturing primary oval cells on Sw-3T3 fibroblasts; endogenous in cells; host or cells: primary mouse liver oval (progenitor) cells
Text: The anti-activated Notch2 antibody (clone 40-2-7) was generated against the peptide VIMAKRKRKHGSLW, corresponding to amino acids 1697-1710 of the human Notch2 protein sequence (SEQ ID NO:73), coupled to KLH (YenZym Custom Antibodies, LLC). Splenocytes from a rabbit producing an antibody with the appropriate specificity were used to generate hybridomas (Epitomics, Inc.). Clone 40-2-7 was identified by screening the resulting rabbit monoclonal antibodies by immunoblotting and immunohistochemistry. This antibody recognizes both human (FIG. 7B, left panel) and mouse (FIG. 7B, right panel) active Notch2 at endogenous levels.
Progenitors cultured in the culture system maintained growth (FIG. 2A) and formed colonies consisting of small, tightly packed cells with a high nuclear-cytoplasmic ratio and a distinct raised edge (FIG. 2A, left panel). The cells within these colonies were uniformly EpCAM positive (FIG. 2A, right panel). […] Activated Notch2 was detected by Western blot analysis using a rabbit monoclonal antibody raised against the S3 cleaved form of the human Notch2 protein (FIG. 7B). […]
Notch2 signaling was active in cultured oval cells, as transcriptionally active Notch2 intracellular domain (ICD) could be detected using an antibody specific to the γ-secretase cleaved form of this receptor (FIG. 2H). […]

[1] = test system: liver progenitor cells (oval cells); assay: Primary oval cell culture on Sw-3T3 feeder fibroblasts: colony formation and proliferation; assay type: cell-based, mouse
Text: To elucidate the role of Notch signaling in liver regeneration, an in vitro culture system was developed. Cell cultures were established by culturing primary oval cells on Sw-3T3 fibroblasts (ATCC), arrested with Mitomycin C (Sigma), in High Glucose Dulbecco's Modified Eagle Medium (DMEM; Invitrogen) supplemented with 15% Fetal Calf Serum (Sigma), non-essential amino acids (Invitrogen), Glutamax (Invitrogen), and ITS (Invitrogen).

T1 sequence (O35516 26-2473): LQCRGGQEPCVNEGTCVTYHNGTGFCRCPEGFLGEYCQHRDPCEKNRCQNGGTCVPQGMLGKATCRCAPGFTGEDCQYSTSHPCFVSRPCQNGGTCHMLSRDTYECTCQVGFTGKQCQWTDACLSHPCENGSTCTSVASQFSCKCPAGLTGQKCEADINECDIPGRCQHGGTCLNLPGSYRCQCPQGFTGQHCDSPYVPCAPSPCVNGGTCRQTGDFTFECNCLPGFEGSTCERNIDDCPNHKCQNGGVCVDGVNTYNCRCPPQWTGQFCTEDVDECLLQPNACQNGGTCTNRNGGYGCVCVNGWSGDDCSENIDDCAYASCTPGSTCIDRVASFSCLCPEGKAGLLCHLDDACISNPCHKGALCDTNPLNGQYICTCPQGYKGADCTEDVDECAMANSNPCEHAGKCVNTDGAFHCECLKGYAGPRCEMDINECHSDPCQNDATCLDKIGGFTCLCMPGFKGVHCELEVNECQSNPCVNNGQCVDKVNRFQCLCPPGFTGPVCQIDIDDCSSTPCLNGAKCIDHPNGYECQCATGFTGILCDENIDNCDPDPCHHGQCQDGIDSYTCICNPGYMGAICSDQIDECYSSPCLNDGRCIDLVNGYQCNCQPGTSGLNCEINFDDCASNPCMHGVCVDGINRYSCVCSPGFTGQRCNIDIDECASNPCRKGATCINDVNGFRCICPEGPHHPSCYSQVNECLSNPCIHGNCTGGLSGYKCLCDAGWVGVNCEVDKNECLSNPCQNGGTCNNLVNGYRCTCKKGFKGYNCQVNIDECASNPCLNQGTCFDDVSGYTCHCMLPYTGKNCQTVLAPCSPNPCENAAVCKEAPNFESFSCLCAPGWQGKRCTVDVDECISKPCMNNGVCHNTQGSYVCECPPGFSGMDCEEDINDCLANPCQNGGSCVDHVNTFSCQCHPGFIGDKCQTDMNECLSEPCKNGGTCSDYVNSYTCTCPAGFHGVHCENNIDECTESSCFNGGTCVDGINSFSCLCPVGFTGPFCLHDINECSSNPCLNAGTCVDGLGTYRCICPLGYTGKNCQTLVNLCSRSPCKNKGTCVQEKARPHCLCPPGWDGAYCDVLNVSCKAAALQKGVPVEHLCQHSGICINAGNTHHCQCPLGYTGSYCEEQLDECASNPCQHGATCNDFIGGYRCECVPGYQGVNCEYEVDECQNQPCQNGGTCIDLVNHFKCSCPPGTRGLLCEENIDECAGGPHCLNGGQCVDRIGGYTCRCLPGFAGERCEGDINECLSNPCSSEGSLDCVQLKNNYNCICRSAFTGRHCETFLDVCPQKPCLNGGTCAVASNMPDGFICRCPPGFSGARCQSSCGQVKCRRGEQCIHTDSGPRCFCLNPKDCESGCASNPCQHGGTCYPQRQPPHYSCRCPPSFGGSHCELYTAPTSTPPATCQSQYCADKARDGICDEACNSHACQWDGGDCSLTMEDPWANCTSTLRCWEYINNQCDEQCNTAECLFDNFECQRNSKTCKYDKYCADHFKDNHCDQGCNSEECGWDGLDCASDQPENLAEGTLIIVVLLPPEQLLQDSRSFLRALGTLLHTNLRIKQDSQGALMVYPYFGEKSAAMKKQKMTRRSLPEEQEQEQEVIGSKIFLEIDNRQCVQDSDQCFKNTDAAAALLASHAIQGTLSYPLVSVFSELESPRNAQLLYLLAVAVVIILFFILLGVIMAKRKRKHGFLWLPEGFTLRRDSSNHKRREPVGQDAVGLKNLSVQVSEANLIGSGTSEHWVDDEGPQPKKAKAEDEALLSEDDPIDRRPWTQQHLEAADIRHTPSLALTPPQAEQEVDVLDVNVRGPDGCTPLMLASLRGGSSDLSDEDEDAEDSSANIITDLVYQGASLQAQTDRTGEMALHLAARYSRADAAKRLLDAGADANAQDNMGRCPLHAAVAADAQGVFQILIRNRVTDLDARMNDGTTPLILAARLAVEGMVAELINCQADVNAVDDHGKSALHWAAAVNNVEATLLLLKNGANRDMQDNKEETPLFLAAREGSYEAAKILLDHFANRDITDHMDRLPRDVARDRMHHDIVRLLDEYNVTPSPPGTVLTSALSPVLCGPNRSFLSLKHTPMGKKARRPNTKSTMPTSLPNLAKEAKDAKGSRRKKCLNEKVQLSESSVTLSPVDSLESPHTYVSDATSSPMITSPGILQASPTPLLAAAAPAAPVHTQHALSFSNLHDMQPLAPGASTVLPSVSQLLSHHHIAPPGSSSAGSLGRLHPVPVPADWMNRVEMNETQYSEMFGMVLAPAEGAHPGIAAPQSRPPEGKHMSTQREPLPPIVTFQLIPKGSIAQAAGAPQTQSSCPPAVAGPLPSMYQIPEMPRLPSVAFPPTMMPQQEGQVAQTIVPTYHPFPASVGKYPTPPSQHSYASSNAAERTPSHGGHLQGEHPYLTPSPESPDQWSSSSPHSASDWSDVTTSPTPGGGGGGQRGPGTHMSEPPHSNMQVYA

- appearance of gamma-secretase cleaved (active) form of Notch2 (ICD) (Notch2): absent
SMILES: C[C@H](NC(=O)Cc1cc(F)cc(F)c1)C(=O)N[C@H](C(=O)OC(C)(C)C)c1ccccc1 [DAPT, N—[N-(3,5-difluorophenacetyl)-1-alanyl]-S-phenylglycine t-butyl ester]
- progenitor cell proliferation ([1]; FIG. 2D): small increase
- colony formation frequency ([1]; plated CD45 negative, non-parenchymal cells, without DAPT approximately 1 colony per 100,000): approximately 1 colony per 10,000 cells plated
- enhancement of colony formation ([1]; primary cultures treated with DAPT vs untreated, FIG. 2B): approximately ten-fold
